# Measured values taken from ChEMBL document CHEMBL5252509, “In depth analysis of kinase cross screening data to identify chemical starting points for inhibition of the Nek family of kinases” (Medchemcomm, 2018).
# Target: Serine/threonine-protein kinase Nek5 (Homo sapiens, UniProt Q6P3R8)
# Experiment: Inhibition of NEK5 (unknown origin) assessed as dissociation constant
# Serine/threonine-protein kinase Nek5, sequence (Q6P3R8 whole entry): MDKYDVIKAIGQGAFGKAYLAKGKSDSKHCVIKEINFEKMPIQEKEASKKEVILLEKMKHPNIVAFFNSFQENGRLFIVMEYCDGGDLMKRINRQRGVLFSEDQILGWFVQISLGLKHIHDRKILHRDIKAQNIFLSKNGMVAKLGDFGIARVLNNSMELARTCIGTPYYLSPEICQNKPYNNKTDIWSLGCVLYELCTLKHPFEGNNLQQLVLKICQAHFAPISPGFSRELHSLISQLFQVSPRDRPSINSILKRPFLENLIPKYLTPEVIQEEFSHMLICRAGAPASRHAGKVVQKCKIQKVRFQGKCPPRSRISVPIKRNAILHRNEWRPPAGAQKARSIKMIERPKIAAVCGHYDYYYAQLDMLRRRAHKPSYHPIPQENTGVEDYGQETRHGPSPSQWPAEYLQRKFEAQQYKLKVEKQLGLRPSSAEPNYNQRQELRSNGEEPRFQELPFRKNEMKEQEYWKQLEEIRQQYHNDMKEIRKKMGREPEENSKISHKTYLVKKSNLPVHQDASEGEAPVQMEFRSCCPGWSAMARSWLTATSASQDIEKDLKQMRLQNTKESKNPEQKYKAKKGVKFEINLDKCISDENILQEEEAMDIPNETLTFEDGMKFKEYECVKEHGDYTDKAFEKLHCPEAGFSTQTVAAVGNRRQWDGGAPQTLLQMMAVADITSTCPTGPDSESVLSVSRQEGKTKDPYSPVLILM
smiles,measurement,value
COc1cc(Nc2ncc3c(C)nc(-c4cc5ccccc5[nH]4)n3n2)cc(OC)c1OC,Kd,730 nM
